Article PMC10771296, “Plectasin: from evolution to truncation, expression, and better druggability” (Frontiers in Microbiology, 2023)
≈ marks a conversion by molar mass, not a printed value. Where a SMILES comes first, the peptide text is derived from it. Bridges are numbered along the chain shown (N, C = ends).

Tests used:
[1] = tested on: S. aureus ATCC43300; assay: Post-antibiotic effect; type: cell-based, Staphylococcus aureus; conditions: 2 h exposure, 1 × 10^8 CFU/mL, then diluted 1,000 times
Protocol: They were incubated at 37°C and 250 rpm, sampled, and coated on MHA plates for colony counting every hour. Phosphate-buffered saline (PBS) was used as a negative control, and vancomycin was used as a positive control. The calculation formula for the Post-antibiotic effect (PAE) was based on previous study ([Wu et al., 2022]).

[2] = tested on: E. coli ATCC25922; assay: MIC, micro broth dilution; type: cell-based; conditions: 1 × 10^5 CFU/mL, repeated thrice
Protocol: (§1) The minimum inhibitory concentration (MIC) of the peptides was assayed using the micro broth dilution method, which is an important indicator of the antibacterial activity of the AMPs ([Liu et al., 2021]). […] The MIC was defined as the lowest concentration of ones at which no visible bacterial growth was observed. All the assays were repeated thrice.

[3] = tested on: S. enteriditis CVCC3377; assay: MIC, micro broth dilution; type: cell-based; conditions: 1 × 10^5 CFU/mL, repeated thrice
Protocol: as §1

[4] = tested on: S. aureus ATCC43300; assay: Thermal stability read out as MIC; type: physicochemical, Staphylococcus aureus; conditions: 1 h; for MIC after heat treatment: triplicates
Protocol: (§2) The stability of Ple-AB was assessed based on its antibacterial activity against S. aureus ATCC43300. Temperature stability was determined by incubation at 20, 40, 60, 80, and 100°C for 1 h ([Li et al., 2020]). The pH stability was determined by incubation in buffers with a pH of 2, 4, 6, 8, and 10 for 4 h ([Yang et al., 2017]). The peptides were incubated with different concentrations of metal ions, serum, artificial gastric fluid, and simulated intestinal fluid to assess their stability in the blood and intestines ([Lyu et al., 2019]). All the treatments were performed in triplicates.

[5] = tested on: S. aureus ATCC43300; assay: Salt (metal ion) stability read out as MIC; type: cell-based, Staphylococcus aureus; conditions: triplicates
Protocol: as §2

[6] = tested on: S. agalactiae CAU-FRI-2022-01; assay: MIC/MBC, micro broth dilution; type: cell-based
Protocol: as §1

[7] = tested on: S. dysgalactiae CVCC3938; assay: MIC/MBC, micro broth dilution; type: cell-based
Protocol: as §1

[8] = tested on: S. epidermidis ATCC35984; assay: MIC/MBC, micro broth dilution; type: cell-based
Protocol: as §1

[9] = tested on: S. agalactiae ATCC13813; assay: MIC/MBC, micro broth dilution; type: cell-based
Protocol: as §1

[10] = tested on: S. epidermidis ATCC12228; assay: MIC/MBC, micro broth dilution; type: cell-based
Protocol: as §1

[11] = tested on: S. agalactiae CAU-FRI-2022-02; assay: MIC/MBC, micro broth dilution; type: cell-based
Protocol: as §1

[12] = tested on: S. aureus ATCC43300; assay: Time-kill curve (bacterial kinetics in vitro); type: cell-based, Staphylococcus aureus; conditions: 1 × 10^5 CFU/mL, 37°C, 250 rpm, colony counting
Protocol: The bactericidal efficiency of Ple-AB was evaluated by plotting a time-kill curve ([Zheng et al., 2021]). Single colonies of the S. aureus ATCC43300 were picked for overnight activation, and 1% were transferred and incubated at 37°C until the logarithmic growth phase. […] Samples of 100 uL of bacteria were taken at 0, 0.5, 1, 2, 4, 6, 8, 10, 12, and 24 h, diluted, and coated to count the number of single colonies and plot the time-killing curve.

[13] = tested on: ICR mice; assay: In vivo safety: serum biochemical indices; conditions: 10 mg/kg i.p. for six consecutive days
Protocol: Eight 6-week-old ICR mice were randomly divided into two groups and injected intraperitoneally with Ple-AB (10 mg/kg, body weight) and saline for six consecutive days. […] They were weighed daily, and blood was collected on the 7th day for hematological and biochemical analyses. Simultaneously, the heart, liver, spleen, lungs, and kidneys were collected for tissue fixation and hematoxylin–eosin (HE) staining to observe any pathological changes ([Shishkina et al., 2023]).

[14] = tested on: Streptococcus; assay: MIC, summary over the panel; type: cell-based; conditions: including S. agalactiae ATCC13813, S. dysgalactiae CVCC3938, S. agalactiae CAU-FRI-2022-02
Protocol: as §1

[15] = tested on: gram-negative bacteria; assay: MIC, summary over the panel; type: cell-based; conditions: summary of the panel
Protocol: as §1

[16] = tested on: murine macrophage RAW 264.7; assay: Cytotoxicity, MTT assay; type: cell-based, mouse
Protocol: The cytotoxicity of Ple-AB toward the murine macrophage RAW 264.7 (Peking Union Medical College) was tested using the MTT assay ([Wang et al., 2018]). Cells (2.5 × 10^4 CFU/mL) were incubated at 37°C for 24 h, and thereafter Ple-AB at a concentration of 2–256 μg/mL was added for 24 h. The supernatant was washed twice, […] 3-(4,5-dimethylthiazol-2-yl)-2,5-diphenyltetrazolium bromide (MTT) solution was added, and the mixture was incubated for 4 h. The absorbance of each well was measured at 570 nm using a microplate reader. PBS (Acontrol) was used as the control. Survival rate (%) = (A/Acontrol) × 100 was calculated.

[17] = tested on: S. aureus ATCC43300; assay: Serum stability read out as MIC; type: in vitro ADME, Staphylococcus aureus; conditions: 1–8 h, triplicates
Protocol: as §2

[18] = bovine mastitis isolate, micro broth dilution, 1 × 10^5 CFU/mL, repeated thrice
[19] = micro broth dilution, 1 × 10^5 CFU/mL, repeated thrice

In the case of CC[C@H](C)[C@@H]1NC(=O)[C@H](CO)NC(=O)[C@H](CCCCN)NC(=O)[C@@H]2CSSC[C@@H](C(=O)N[C@@H](Cc3ccc(O)cc3)C(=O)O)NC(=O)[C@H](CCCCN)NC(=O)[C@@H]3CSSC[C@H](NC(=O)[C@H](CCC(N)=O)NC(=O)[C@H](CCSC)NC(=O)[C@H](CCC(=O)O)NC(=O)[C@H](CC(=O)O)NC(=O)[C@H](Cc4c[nH]c5ccccc45)NC(=O)[C@@H]4CCCN4C(=O)[C@@H](NC(=O)CNC(=O)[C@H](Cc4ccccc4)NC(=O)CN)CSSC[C@H](NC(=O)[C@H](Cc4ccc(O)cc4)NC(=O)CNC(=O)CNC(=O)[C@H](CCCCN)NC(=O)[C@H](Cc4ccc(O)cc4)NC(=O)CNC(=O)[C@H](CCCCN)NC1=O)C(=O)N[C@@H](C)C(=O)N[C@@H](CCCCN)C(=O)NCC(=O)NCC(=O)N[C@@H](Cc1ccccc1)C(=O)N[C@@H](C(C)C)C(=O)N3)C(=O)N[C@@H](Cc1c[nH]cn1)C(=O)N[C@@H](CC(N)=O)C(=O)N[C@@H](Cc1c[nH]cn1)C(=O)N2 [Ple-AB] (H-GFGCPWDEMQCHNHCKSIKGYKGGYCAKGGFVCKCY-OH; disulfide 4-26, 11-33, 15-35; N-terminus and C-terminus assumed), the “PAE (post-antibiotic effect)” value ([1]; 1× MIC) is reported as 1.15 h, the “PAE (post-antibiotic effect)” value ([1]; 2× MIC) is reported as 1.18 h and the “PAE (post-antibiotic effect)” value ([1]; 4× MIC) is reported as 2.25 h. For the same compound, the MIC [2] was >128 µg/mL, the MIC [3] was >128 µg/mL and the “MIC after heat treatment” value ([4]; 20°C) was 16 µg/mL (≈ 4 µM). The “MIC after heat treatment” value ([4]; 40°C) was 16 µg/mL (≈ 4 µM), the “MIC after heat treatment” value ([4]; 60°C) was 16 µg/mL (≈ 4 µM) and the “MIC after heat treatment” value ([4]; 80°C) was 16 µg/mL (≈ 4 µM). The “MIC after heat treatment” value ([4]; 100°C) was 32 µg/mL (≈ 8 µM), the “Increase of MIC after heat treatment” value ([4]; 100°C, versus control) was “twofold” and the MIC with salts ([5]; Ca^2+ (2.5 mM)) was 16 µg/mL. It also gave an MIC with salts ([5]; Fe^3+ (4 μM)) of 16 µg/mL, an MIC with salts ([5]; K^+ (4.5 mM)) of 16 µg/mL and an MIC with salts ([5]; Mg^2+ (1 mM)) of 16 µg/mL. For the same compound, the MIC with salts ([5]; NH4^+ (6 μM)) was 16 µg/mL, the MIC with salts ([5]; Na^+ (150 mM)) was 16 µg/mL and the MIC with salts ([5]; Zn^2+ (8 μM)) was 16 µg/mL. For the same compound, the MBC ([6]; S. agalactiae CAU-FRI-2022-01) was 32 µg/mL (≈ 8 µM), the MIC [6, 18] was 4 µg/mL (≈ 1 µM) and the MBC ([7]; S. dysgalactiae CVCC3938) was 4 µg/mL (≈ 1 µM). The MIC [7, 19] was 4 µg/mL (≈ 1 µM), the MBC ([8]; S. epidermidis ATCC35984) was 8 µg/mL (≈ 2 µM) and the MIC [8, 19] was 4 µg/mL (≈ 1 µM). For the same compound, the MBC ([9]; S. agalactiae ATCC13813) was 4 µg/mL (≈ 1 µM), the MIC [9, 19] was 4 µg/mL (≈ 1 µM) and the MBC ([10]; S. epidermidis ATCC12228) was 8 µg/mL (≈ 2 µM). The MIC [10, 19] was 2 µg/mL (≈ 0.5 µM), the MBC ([11]; S. agalactiae CAU-FRI-2022-02) was 4 µg/mL (≈ 1 µM) and the MIC [11, 18] was 2 µg/mL (≈ 0.5 µM). For the same compound, the “Time to kill all the strains” value ([12]; 1× MIC) was ≤ 4 h, the “Time to kill all the strains” value ([12]; 2× MIC) was ≤ 4 h and the “Time to 99% bactericidal activity” value ([12]; 4× MIC) was ≤ 2 h. For the same compound, the “Serum biochemical indices versus control group” value ([13]; blood on 7th day) was “not significantly different”, the ALT ([13]; serum on 7th day) was 49.07 ± 6.21 IU/L and the AST ([13]; serum on 7th day) was 25.85 ± 2.33 IU/L. The Albumin ([13]; serum on 7th day) was 35.59 ± 4.58 g/L, the “Ca^2+” value ([13]; serum on 7th day) was 1.38 ± 0.06 mmol/L and the Creatinine ([13]; serum on 7th day) was 83.13 ± 4.57 µmol/L. For the same compound, the Globulin ([13]; serum on 7th day) was 18.82 ± 0.25 g/L, the Glucose ([13]; serum on 7th day) was 1.59 ± 0.15 mmol/L and the Phosphorous ([13]; serum on 7th day) was 3.33 ± 0.20 mmol/L. The Total protein ([13]; serum on 7th day) was 54.41 ± 4.56 g/L, the “Urea Nitrogen” value ([13]; serum on 7th day) was 11.6 ± 0.8 mmol/L and the “MICs, range over Streptococcus” value [14] was 2 to 4 µg/mL. The “Activity against gram-negative bacteria” value [15] was “inactive”, the Cytotoxicity ([16]; RAW264.7, 256 μg/mL) was < 1% and the Cell survival rate ([16]; RAW264.7, 2–256 μg/mL, 24 h, MTT, A570) was “above 80%”. It also gave an MIC after serum ([17]; Serum (25%)) of 16 µg/mL (≈ 4 µM) and an MIC after serum ([17]; Serum (50%)) of 16 µg/mL (≈ 4 µM).
